{"source": "paper PMC11348465", "about": "“Pharmacochemical Study of Multitarget Amino Acids’ Hybrids: Design, Synthesis, In vitro, and In silico Studies” (Medicinal Chemistry (Shariqah (United Arab Emirates), 2024)", "key": {"[1]": {"target": "T1, ovine COX-2 (Ovis aries, UniProt P79208)", "T1 construct": "purchased Cayman (USA)", "T1 sequence (P79208 17-603)": "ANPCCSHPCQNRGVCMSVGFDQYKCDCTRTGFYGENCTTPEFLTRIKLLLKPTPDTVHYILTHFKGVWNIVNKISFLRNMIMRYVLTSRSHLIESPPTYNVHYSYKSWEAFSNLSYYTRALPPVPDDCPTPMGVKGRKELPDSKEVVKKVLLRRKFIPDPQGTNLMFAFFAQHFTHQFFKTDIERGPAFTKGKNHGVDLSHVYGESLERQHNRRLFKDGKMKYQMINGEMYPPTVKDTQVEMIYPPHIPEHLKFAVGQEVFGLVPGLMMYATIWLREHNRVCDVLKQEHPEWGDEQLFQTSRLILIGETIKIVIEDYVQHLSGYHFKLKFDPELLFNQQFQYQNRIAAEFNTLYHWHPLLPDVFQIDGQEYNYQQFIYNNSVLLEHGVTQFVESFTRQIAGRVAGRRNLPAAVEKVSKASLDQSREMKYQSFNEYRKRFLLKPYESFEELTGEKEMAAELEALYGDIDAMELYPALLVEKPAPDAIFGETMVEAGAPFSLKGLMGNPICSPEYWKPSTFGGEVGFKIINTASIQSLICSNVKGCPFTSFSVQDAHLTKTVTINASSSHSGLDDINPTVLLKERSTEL", "experiment": "Cyclooxygenase-2 inhibition study", "type": "biochemical", "settings": "for IC50: read-out: COX-2 inhibition (IC50); for COX-2 inhibition (%): % inhibition at 100 µM", "method": "The in vitro study of cyclooxygenase (COX) activity was determined by using arachidonic acid (AA) as the substrate and N,N,N’,N’-tetramethylphenylenediamine (TMPD) as the co-substrate. […] The absorption due to the spontaneous oxidation of TMPD was subtracted from the initial rate of oxidation observed in the presence of AA. […] A blank determination was used first to serve as a negative control. Indomethacin was used as a reference COX-2 inhibitor (positive control).\nThe role of COX-2 in neurodegenerative diseases has been reported, and COX-2 inhibition is considered of high importance as a therapeutic tool. The designed derivatives were tested for their COX-2 inhibition activity on the ovine COX-2 enzyme. […] Indomethacin was used as a reference compound."}, "[2]": {"experiment": "Inhibition of linoleic acid peroxidation (AAPH-induced)", "method": "Our group evaluated the in vitro study as reported previously. Ten 16 mM sodium linoleate solution microliters were added to the UV cuvette containing 93 µL of a 0.05 M phosphate buffer, pH 7.4, and 10 µL of the tested compounds (final concentration 100 µM). The oxidation reaction started at 37 °C under air by adding 50 µL of the free radical initiator AAPH (40 mM). Oxidation was carried out and monitored at 234 nm. DMSO under the same conditions was used as a negative control. Trolox was used as the appropriate standard (positive control). The results are given in Table S1 in the supplementary material.\nWe used the water-soluble 2, 2’-azobis(2-amidinopropane) hydrochloride (AAPH) to generate in vitro peroxyl radicals through spontaneous thermal decomposition, which resembles cellular lipid peroxidation due to the activity of the undertaken radicals. The anti-lipid peroxidation activities were compared to a well-known antioxidant, i.e., Trolox (Table S1 in the supplementary material). […] In general, the anti-lipid peroxidation ranged from 8-99%. Except for acids 11, 12, 17, 19, 21, 22, 24, 25, and 28, which present high antioxidant activities (on the high % level), the other cinnamic acids present low or medium activity."}}}
{"smiles": "O=C(O)/C=C/c1ccc(F)cc1", "note": "[Compound 27]", "values": [{"measurement": "inhibition at 100 µM", "setting": "[1]", "result": 46, "unit": "%"}]}
{"smiles": "O=C(O)/C=C/c1ccc(Cl)cc1", "note": "[Compound 16]", "values": [{"measurement": "inhibition at 100 µM", "setting": "[1]", "result": 46, "unit": "%"}]}
{"smiles": "COC(=O)CCCNC(=O)/C=C/c1ccc(OC(C)=O)cc1", "note": "[Compound 30b]", "values": [{"measurement": "IC50", "setting": "[1]", "result": 50, "unit": "µM"}, {"measurement": "AAPH inhibition (%, at 100 µM)", "setting": "[2]", "result": 9, "unit": "%"}]}
{"smiles": "COC(=O)CCCNC(=O)/C=C/c1cccc(Br)c1", "note": "[Compound 15b]", "values": [{"measurement": "COX-2 inhibition (%)", "setting": "[1]", "result": 43, "unit": "%"}, {"measurement": "AAPH inhibition (%, at 100 µM)", "setting": "[2]", "result": 27, "unit": "%"}]}
{"smiles": "COC(=O)CCCNC(=O)C=Cc1ccccc1", "note": "[Compound 22b]", "values": [{"measurement": "IC50", "setting": "[1]", "result": 61, "unit": "µM"}, {"measurement": "AAPH inhibition (%, at 100 µM)", "setting": "[2]", "result": 24, "unit": "%"}]}
{"smiles": "COC(=O)CC[C@H](NC(=O)/C=C/c1ccc(Cl)cc1)C(=O)OC", "note": "[Compound 16c]", "values": [{"measurement": "AAPH inhibition (%, at 100 µM)", "setting": "[2]", "result": 26, "unit": "%"}]}
{"smiles": "O=C(O)/C=C/c1ccc(O)c(O)c1", "note": "[Compound 28, trans-caffeic acid]", "values": [{"measurement": "inhibition at 100 µM", "setting": "[1]", "result": 6, "unit": "%"}, {"measurement": "AAPH inhibition (%, at 100 µM)", "setting": "[2]", "result": 80, "unit": "%"}]}
{"smiles": "CCOC(=O)CNC(=O)/C=C/c1ccc(C#N)cc1", "note": "[Compound 26a]", "values": [{"measurement": "IC50", "setting": "[1]", "result": 77.5, "unit": "µM"}, {"measurement": "AAPH inhibition (%, at 100 µM)", "setting": "[2]", "result": 37, "unit": "%"}]}
{"smiles": "COC(=O)CC[C@H](NC(=O)/C=C/c1ccc(OCc2ccc(Br)cc2)cc1)C(=O)OC", "note": "[Compound 11c]", "values": [{"measurement": "AAPH inhibition (%, at 100 µM)", "setting": "[2]", "result": 92, "unit": "%"}]}
{"smiles": "COC(=O)CCCNC(=O)/C=C/C=C/c1ccccc1", "note": "[Compound 23b]", "values": [{"measurement": "IC50", "setting": "[1]", "result": 55, "unit": "µM"}, {"measurement": "AAPH inhibition (%, at 100 µM)", "setting": "[2]", "result": 78, "unit": "%"}]}
{"smiles": "COC(=O)CCCNC(=O)/C=C/c1ccc(F)cc1", "note": "[Compound 27b]", "values": [{"measurement": "IC50", "setting": "[1]", "result": 75, "unit": "µM"}, {"measurement": "AAPH inhibition (%, at 100 µM)", "setting": "[2]", "result": 22, "unit": "%"}]}
{"smiles": "COC(=O)CCCNC(=O)/C=C/c1cc(OC)ccc1OC", "note": "[Compound 19b]", "values": [{"measurement": "COX-2 inhibition (%)", "setting": "[1]", "result": 20, "unit": "%"}, {"measurement": "AAPH inhibition (%, at 100 µM)", "setting": "[2]", "result": 70, "unit": "%"}]}
{"smiles": "COC(=O)CCCNC(=O)/C=C/c1ccc(C#N)cc1", "note": "[Compound 26b]", "values": [{"measurement": "IC50", "setting": "[1]", "result": 32.5, "unit": "µM"}, {"measurement": "AAPH inhibition (%, at 100 µM)", "setting": "[2]", "result": 3, "unit": "%"}]}
{"smiles": "O=C(O)/C=C/c1cccc2ccccc12", "note": "[Compound 17]", "values": [{"measurement": "AAPH inhibition (%, at 100 µM)", "setting": "[2]", "result": 78, "unit": "%"}]}
{"smiles": "CCOC(=O)CNC(=O)/C=C/C=C/c1ccccc1", "note": "[Compound 23a]", "values": [{"measurement": "IC50", "setting": "[1]", "result": 35, "unit": "µM"}, {"measurement": "AAPH inhibition (%, at 100 µM)", "setting": "[2]", "result": 85, "unit": "%"}]}
{"smiles": "CCOC(=O)CNC(=O)/C=C/c1ccc(O)cc1", "note": "[Compound 25a]", "values": [{"measurement": "AAPH inhibition (%, at 100 µM)", "setting": "[2]", "result": 39, "unit": "%"}]}
{"smiles": "CCOC(=O)CNC(=O)/C=C/c1ccc(Br)cc1", "note": "[Compound 14a]", "values": [{"measurement": "IC50", "setting": "[1]", "result": 65.5, "unit": "µM"}, {"measurement": "AAPH inhibition (%, at 100 µM)", "setting": "[2]", "result": 69, "unit": "%"}]}
{"smiles": "COc1cc(/C=C/C(=O)O)ccc1O", "note": "[Compound 24]", "values": [{"measurement": "inhibition at 100 µM", "setting": "[1]", "result": 14, "unit": "%"}, {"measurement": "AAPH inhibition (%, at 100 µM)", "setting": "[2]", "result": 86, "unit": "%"}]}
{"smiles": "CCOC(=O)CNC(=O)/C=C/c1ccc(OCc2ccc(Br)cc2)cc1", "note": "[Compound 11a, Ethyl (E)-(3-(4-((4-bromobenzyl)oxy)phenyl)acryloyl)glycinate]", "values": [{"measurement": "IC50", "setting": "[1]", "result": 6, "unit": "µM"}, {"measurement": "AAPH inhibition (%, at 100 µM)", "setting": "[2]", "result": 38, "unit": "%"}]}
{"smiles": "CCOC(=O)CNC(=O)/C=C/c1ccc(F)cc1", "note": "[Compound 27a]", "values": [{"measurement": "AAPH inhibition (%, at 100 µM)", "setting": "[2]", "result": 78, "unit": "%"}]}
{"smiles": "CCOC(=O)CNC(=O)/C=C/c1ccc(Cl)cc1", "note": "[Compound 16a]", "values": [{"measurement": "IC50", "setting": "[1]", "result": 63, "unit": "µM"}]}
{"smiles": "Cc1c(C)c2c(c(C)c1O)CCC(C)(C(=O)O)O2", "note": "(centres unmarked) [Trolox, reference compound]", "values": [{"measurement": "AAPH inhibition (%, at 100 µM)", "setting": "[2]", "result": 92, "unit": "%"}]}
{"smiles": "O=C(O)/C=C/c1ccc(Br)cc1", "note": "[Compound 14]", "values": [{"measurement": "IC50", "setting": "[1]", "result": 100, "unit": "µM"}, {"measurement": "AAPH inhibition (%, at 100 µM)", "setting": "[2]", "result": 13, "unit": "%"}]}
{"smiles": "COC(=O)CCCNC(=O)/C=C/c1ccc2c(c1)OC(C)(C)O2", "note": "[Compound 29b]", "values": [{"measurement": "COX-2 inhibition (%)", "setting": "[1]", "result": 4, "unit": "%"}]}
{"smiles": "COC(=O)CCCNC(=O)/C=C/c1ccc(Cl)cc1", "note": "[Compound 16b]", "values": [{"measurement": "IC50", "setting": "[1]", "result": 92.5, "unit": "µM"}, {"measurement": "AAPH inhibition (%, at 100 µM)", "setting": "[2]", "result": 8, "unit": "%"}]}
{"smiles": "CCOC(=O)CNC(=O)/C=C/c1ccc(OC(C)=O)cc1", "note": "[Compound 30a]", "values": [{"measurement": "IC50", "setting": "[1]", "result": 58, "unit": "µM"}]}
